Assay results published in ChEMBL document CHEMBL1136950, “Thiopyrophosphoantigens: solid-phase synthesis and in vitro characterization of a new class of Vgamma9 Vdelta2 T cells activators” (J Med Chem, 2009).
The source made the active and inactive calls. The rule behind the calls is not given here.

Columns and labels:
[1] = system: T-cell; assay: Immunostimulatory activity in human Vgamma9/Vdelta2 T cells assessed as TNFalpha production after 12 hrs by ELISA; assay type: functional, cell-based
[2] = system: T-cell; assay: Immunostimulatory activity in human Vgamma9/Vdelta2 T cells assessed as expansion induces at 20 uM; assay type: functional, cell-based
[3] = Stability in presence of alkaline phosphatase; settings: isolated protein
[4] = Stability in presence alkaline phosphatase after 30 mins by HPLC-MS analysis
[5] = Stability in presence alkaline phosphatase after 20 mins by HPLC-MS analysis
[6] = Stability in presence alkaline phosphatase after 60 mins by HPLC-MS analysis

O=P(O)(O)OP(=O)(O)SCCCCF gave an EC50 [1] of 10.8 µM.

In the case of C/C(=C\CSP(=O)(O)OP(=O)(O)O)CO, the Activity [2] is reported as “Active” and the EC50 [1] is reported as 0.0048 µM.

For CC(O)CCSP(=O)(O)OP(=O)(O)O (stereo not drawn), the EC50 [1] was 75 µM.

C=CCCCCCSP(=O)(O)OP(=O)(O)O gave an EC50 [1] of 6.3 µM.

O=P(O)(O)OP(=O)(O)SCCCCCl gave an EC50 [1] of 100 µM.

In the case of C=C(C)CCSP(=O)([O-])OP(=O)([O-])[O-].[Na+].[Na+].[Na+], the Stability [3] is reported as 94%, the remaining at 0.5 h [4] is reported as 54% and the remaining at 20 min [5] is reported as 48%. The EC50 [1] was 3.75 µM and the remaining at 1 h [6] was 27%.

O=P(O)(O)OP(=O)(O)SCCC1OCCO1 gave an EC50 [1] of 0.056 µM.

In the case of O=P(O)(O)OP(=O)(O)SCc1ccccc1, the EC50 [1] is reported as 55 µM.

Compound O=P(O)(O)OP(=O)(O)SCCOCCCl has an EC50 [1] of 0.39 µM.

Work on O=P(O)(O)OP(=O)(O)SCCOC1CCCCO1 (stereo not drawn) yielded an EC50 [1] of 12 µM.

Compound CC1(CCSP(=O)(O)OP(=O)(O)O)COC1 has an EC50 [1] of 14 µM.

In the case of N#CCCCCSP(=O)(O)OP(=O)(O)O, the EC50 [1] is reported as 1 µM.

CCSCCCSP(=O)(O)OP(=O)(O)O gave an EC50 [1] of 0.055 µM.
